Test results reported in ChEMBL document CHEMBL3507680, “University of Dundee, Gates Library screen for HepG2 cell viability”.

Experiment: Human HepG2 cell viability assay in 384 well format
Type: toxicity, cell-based
Set-up: dose 125 nL, time 70.5 hour; concentration not given beside the values
Conditions: HepG2 cells, read-out: Inhibition

Row | Compound | cytotoxicity at 70.5 h
1 | Cc1cccc(CNC(=O)C2CCC(=O)N(Cc3ccccc3F)C2)n1 (centres undefined) | -9.23%
2 | CN1CC2(CCN(C(=O)Cn3ncc4ccccc4c3=O)CC2)OC1=O | -13.8%
3 | C=C(C)COc1cccc(CN(C)C(C)c2nccs2)c1 (centres undefined) | -4%
4 | CN(Cc1n[nH]c2c1CCCC2)c1cc(N2CCOCC2)nc(N)n1 | -8.11%
5 | Cc1cccc(CN2CCN(C(=O)c3cnc(C)[nH]c3=O)CC2)c1 | 12.7%
6 | Cc1cc(C)c2c(N3CCN(CCN4CCOCC4)CC3)ncnc2n1 | 16.3%
7 | COc1ccccc1OC1(C(=O)O)CCN(c2ncccc2F)CC1 | -7.34%
8 | O=C(O)CCc1cc2n(n1)CCCN(C(=O)c1ccc(F)cc1F)C2 | -0.277%
9 | Cc1cc(NC(C)c2n[nH]c(C)n2)n2nc(C)c(C)c2n1 (centres undefined) | 20%
10 | Cc1cccc(-n2cc(CNc3ncnc4c3CCNCC4)cn2)c1 | -10.3%
11 | CN(C)C(=O)CCC1CCCN(Cc2cccc(-c3ccccn3)c2)C1 (centres undefined) | 12.2%
12 | NC(=O)c1cccnc1N1C[C@@H]2CC[C@H](C1)N(Cc1ccccn1)C2=O | 5.12%
13 | Cc1cc(C)c2[nH]c(C(=O)NCCN3CCCC3=O)c(C)c2c1 | 23.6%
14 | COc1ccc2c(c1)CC(C(=O)N(C)CCCc1cnn(C)c1)CO2 (centres undefined) | -8.48%
15 | CN1C[C@@H](N)C[C@H]1C(=O)N1CCC(CCCc2ccccc2)CC1 | -0.968%
16 | Cc1nc2c(c(N3CCC(O)(CN4CCCC4)CC3)n1)CCN(C)CC2 | -3.57%
17 | Cc1cccc2[nH]c(COCC(=O)N3CCCn4cncc4C3)nc12 | -6.34%
18 | CCN(Cc1nccn1C)C(=O)c1ccc(NCc2ccccc2)nc1 | -2.21%
19 | O=C(O)c1cnc(-c2cccc3c2CCNC3)c(Cl)c1 | -11.1%
20 | CCNC(=O)[C@@H]1C[C@@H](NC(=O)CSC)CN1Cc1ccncc1 | -10.5%
21 | COc1ccc(Oc2cccnc2)cc1CN1CCCC1 | 28.5%
22 | NC(=O)c1ccc(C2CCCN2C(=O)CCn2nnc3ccccc32)s1 (centres undefined) | -4.98%

Row | Compound | cytotoxicity at 70.5 h
23 | CCC[C@H]1CN(Cc2ccccc2C#N)C[C@@H]1NS(C)(=O)=O | -6.89%
24 | COCc1cc(CNCc2c(C)n(CC(C)C)c3ccccc23)n[nH]1 | -11%
25 | Cc1ccccc1CN1CCC(CNc2ncnc3c2CCNCC3)C1 (centres undefined) | 1.87%
26 | CN(C)c1ccnc(-c2ccnc3c2ccn3C)n1 | -5.41%
27 | CC(C)[C@H]1CN(Cc2c[nH]nn2)C[C@@H]1NC(=O)C1CCOCC1 | -0.972%
28 | Cc1cc2nc(C(=O)NCc3cccnc3N(C)C)cc(C)n2n1 | 3.6%
29 | CN1CC2(CCN(C(=O)c3coc4c3C(=O)CCC4)C2)OC1=O (centres undefined) | -6.28%
30 | COCC(C)N1CCc2onc(-c3ccc(F)c(F)c3)c2C1 (centres undefined) | -1.71%
31 | O=C(Cn1ccc(=O)cc1)N1C[C@H]2CC[C@@H]1CN(c1ncccn1)C2 | -8.59%
32 | O=C(N1CCOCC1)N1CCc2[nH]nc(COc3cccc(Cl)c3)c2C1 | -2.78%
33 | CC(=O)N1CCCN(C(C(=O)O)c2cccc(C)c2C)CC1 (centres undefined) | -12.3%
34 | Cc1ccc(C(=O)N2CCc3ncccc3C2)cc1N1CCNC1=O | 0.999%
35 | CO[C@H]1C[C@@H](O)C12CCN(CCOc1ccc(Cl)cc1)CC2 | -1.42%
36 | CC(C)N(Cc1nc(-c2cccs2)no1)CC1CCC(=O)N1 (centres undefined) | -11.1%
37 | Cc1nccc(N[C@H]2CN(CCC(=O)NC3CCCC3)C[C@@H]2C2CC2)n1 | -2.83%
38 | CC(C)=CCN1CC2(CCN(Cc3ncc[nH]3)CC2)CC1=O | 11.6%
39 | Cc1cc(-c2cnn(C)c2)ccc1OCC(N)=O | -2.62%
40 | COc1ccc(C(C(=O)O)N(C)CCN2CCCC2)cc1F (centres undefined) | -9.88%
41 | CCn1nc(CC(C)C)cc1C(=O)N1CCN([C@H]2CCCC[C@@H]2O)CC1 | -2.99%
42 | COc1cc(CN2CCCC(Nc3cccc(F)c3)C2)cc(Cl)c1O (centres undefined) | 6.37%
43 | Cc1cc(C)c2[nH]c(C(=O)NCCN3CCOC3=O)c(C)c2c1 | 1.29%
44 | CN(CCO)C[C@@H]1CN(C(=O)c2cccc(OC(F)F)c2)C[C@@H]1CO | -5.3%

Row | Compound | cytotoxicity at 70.5 h
45 | COCC(Nc1nc(N(C)C)nc2c1CCNCC2)c1ccccn1 (centres undefined) | 4.09%
46 | c1cn(-c2ccc(CN3CCCC3)cc2)c(-c2cc3n(n2)CCNC3)n1 | -6.8%
47 | OC1(CNCCc2csc(-c3ccncc3)n2)CCCNC1 (centres undefined) | -5.37%
48 | CN(Cc1cnccn1)C(=O)c1ccc(CSc2nnc[nH]2)o1 | -20.7%
49 | COCC(c1ccccn1)N(C)C(=O)c1cc(-c2cccn2C)n[nH]1 (centres undefined) | -10.6%
50 | Cc1cc(CNCC2(O)CCCN(CCCc3ccccc3)C2=O)n[nH]1 (centres undefined) | -5.17%
51 | c1cncc(CN(Cc2ccsc2)Cc2ccc(C3CCCCO3)o2)c1 (centres undefined) | 6.4%
52 | O=C(c1cc(COc2ccc3c(c2)OCO3)[nH]n1)N1CCSCC1 | -0.532%
53 | O=C(CN1CCOC1=O)N1CCC2(CCc3ccccc32)CC1 | 7.69%
54 | Cc1cnc(C(=O)N2CC(=O)N(c3ccccc3Cl)CC2C)cn1 (centres undefined) | -6.52%
55 | Cc1nc(C(C)C)sc1CNC(=O)CCCN1CCCCC1 | 30.6%
56 | CN1CCc2[nH]nc(C(=O)N3CCC4(CN(C)C(=O)O4)C3)c2C1 (centres undefined) | -6.62%
57 | O=C(CN1CC(c2ccccc2)CC1=O)N1CCC(c2ncc[nH]2)CC1 (centres undefined) | -4.48%
58 | Cc1ncsc1CCC(=O)N1CCCC1c1cccnc1 (centres undefined) | -6.95%
59 | Cc1cccc(C)c1OC1CN(Cc2cnc(N3CCOCC3)nc2)C1 | -7%
60 | CSc1ccc(C(=O)C2CCCN(C(=O)CCn3cnnn3)C2)cc1 (centres undefined) | 14.5%
61 | O=C(c1cc(-c2ccco2)nc2c(Cl)cccc12)N1C[C@H]2CNC[C@H]2C1 | -6.09%
62 | c1ccc2sc(N3CCCC4(CCOC4)C3)nc2c1 (centres undefined) | -2.11%
63 | Cc1cnn(CCC(=O)N2CCN(C(=O)C3CC3)[C@@H]3CS(=O)(=O)C[C@@H]32)c1 | -5.71%
64 | Cc1ccc(C(=O)N2CCC(C(F)(F)F)CC2)cc1N1CCNC1=O | 4.91%
65 | CCn1nc(C(=O)N2CCNCC2C(=O)Nc2ccc(C)nc2)cc1C (centres undefined) | 3.8%
66 | Fc1ccc(N2CCCN(c3ccc(Cn4ccnc4)cn3)CC2)cc1 | 2.18%

Row | Compound | cytotoxicity at 70.5 h
67 | COC(=O)[C@@H]1C[C@H](NC(=O)c2cc(=O)[nH]c3ccc(C)cc23)CN1C | -13%
68 | O=C(c1ccccn1)N1CCc2c(nc(-c3ccncc3)[nH]c2=O)C1 | -6.64%
69 | CN(CC(O)CO)C(=O)c1coc(COc2cccc(F)c2)n1 (centres undefined) | 8.53%
70 | CN1CCC(N2CCCC(C(=O)N3Cc4ccccc4C3)C2)CC1 (centres undefined) | -14.7%
71 | CNc1ccc(C)cc1C(=O)N1CCCC2(CCNC2)C1 (centres undefined) | -8.09%
72 | O=C1O[C@@H]2CN(Cc3cccnc3)C[C@@H]2N1CCCN1CCOCC1 | -1.95%
73 | COCC(=O)N1C[C@H]2CNC[C@@]2(C(=O)NCc2cc(C)n[nH]2)C1 | -5.27%
74 | COc1cc(-c2nc3c([nH]2)CCCNC3=O)ccc1O | 5.51%
75 | COc1nc2c(cc1C(=O)NCCCc1nnc(N)s1)CCC2 | -1.23%
76 | CN(CC1CCCCO1)c1nc2c(cc1C(N)=O)CCC2 (centres undefined) | -8.46%
77 | O=C(O)[C@@H]1CN(C2CCCC2)C[C@H]1C1CC1 | -8.02%
78 | CN1CCN(Cc2noc(-c3cc(-c4ccccc4F)n[nH]3)n2)CC1 | 17.5%
79 | Cc1c[nH]c(C(=O)N2CCC(c3nnc(CN(C)CCO)n3C)CC2)c1 | 4.25%
80 | COc1ccc(F)c(-c2ncccc2NC(=O)C(C)C)c1 | 6.17%
81 | CCc1cc(C(=O)NCC2CCN(Cc3ccncc3)CC2)on1 | -9.67%
82 | OC1(CN2CCCC2)CCCN(Cc2cnc(-c3ccccc3)nc2)C1 (centres undefined) | 31.4%
83 | CN(Cc1cnn(C)c1)C1CCN(c2cccc(-c3cscn3)c2)CC1 | -2.02%
84 | Cc1nc(CCNC(=O)C(N)c2c(C)n[nH]c2C)sc1C (centres undefined) | -13.1%
85 | O=C(Cc1cccnc1)NC1CCCN(CCCc2ccccc2)C1 (centres undefined) | -8.8%
86 | CC(=O)NC1CCN(c2cc(C3CCNCC3)nc(C)n2)C1 (centres undefined) | -6.6%
87 | CN(C)C(=O)NCC(=O)N1CCCC2(CCC(=O)N(CC3CC3)C2)C1 (centres undefined) | -13.6%
88 | O=C(c1c[nH]c(=O)c(Cl)c1)N1C[C@@H]2CC[C@H](C1)N(CC1CCC1)C2 | 19.9%

Row | Compound | cytotoxicity at 70.5 h
89 | O=C(CC1CCc2ccccc21)N1CCC(C(=O)O)(n2ccnc2)CC1 (centres undefined) | 22.5%
90 | N[C@H]1CN(C(=O)CCc2ccccn2)C[C@@H]1c1ccccc1 | 4.91%
91 | COc1ccc(CN2CCN(c3nccnc3OC)CC2=O)cc1 | -4.78%
92 | CCn1c(CN2CCCC2)nnc1C1CCN(Cc2cc(C)no2)CC1 | -6.8%
93 | O=C1OCCN1Cc1nc(C2(c3ccc(F)cc3)CCOC2)no1 (centres undefined) | -6.4%
94 | O=C1C[C@H]2CC[C@@H](CN1)N2C(=O)CCc1ccc2c(c1)OCO2 | -12.8%
95 | c1ccc(CCCn2cc(-c3nc(CN4CCOCC4)no3)nn2)cc1 | -15%
96 | COc1ccccc1OC1CCN(C(=O)CCCN2CCOCC2)CC1 | -9.29%
97 | O=C(O)c1cc(-c2ccoc2)cc(S(=O)(=O)NC2CC2)c1 | -6.76%
98 | Cc1ccc(CN2CCC3(CCCN(Cc4ccc(F)c(F)c4)C3)C2)o1 (centres undefined) | 0.359%
99 | CCN1CC(C(=O)N2CC(Oc3ccccc3Cl)C2)CCC1=O (centres undefined) | -1.72%
100 | CCNC(=O)N1CCC(Cc2cccc(C(N)=O)c2)C1 (centres undefined) | -5.09%
101 | CC(C)(CN1CCC(Cc2ccc(C(=O)O)cc2)C1)N1CCOCC1 (centres undefined) | -12.2%
102 | COC(=O)c1ccccc1C(=O)N(CCN(C)C)Cc1sccc1C | -7.74%
103 | Cc1cccc2c1nc(CCO)n2-c1ccc(N)nc1 | -8.34%
104 | Cc1nc(-c2cc(Cl)cc3c2OC(CN)C3)c[nH]1 (centres undefined) | 11.1%
105 | Cc1cc(C)n(C2CN(C(=O)Cn3c(=O)c(C)nc4ccccc43)C2)n1 | 30%
106 | Cc1cc(N2CCCC(N(C)C)C2)n2nccc2n1 (centres undefined) | 9.89%
107 | CCN1CCCC(C)(C(=O)NCCc2nnc(C)[nH]2)C1 (centres undefined) | -3.07%
108 | CC(C1CCN(Cc2cnc(-c3cccs3)nc2)CC1)N(C)C (centres undefined) | 28.9%
109 | Cc1ccccc1SC1CCN(C(=O)[C@H]2[C@@H]3CNC[C@@H]32)CC1 | -1.38%
